From US20120231007A1, “MODULATORS OF CELL CYCLE PROGRESSION” (SINGAPORE HEALTH SERVICES PTE. LTD., priority 2009, published 2012) come the findings set out here.

The test system of one assay is U118 glioma cells. The experiment in a line: Warburg effect: Western blot of AMPK phosphorylation, mTOR activity and ECT2 expression. The class given is cell-based, human. The protocol: Western blot analysis. Whole cell lysates were prepared at the indicated time points following treatment. Cells were lysed in 0.1% SDS buffer (50 mM Tris-HCl, pH7.5, 150 mM NaCl, 1% NP-40, 1% sodium deoxycholate, 0.1 mM sodium vanadate, 50 mM b-glycerophosphate, 1 mM NaF) supplemented with protease inhibitor cocktail (Roche, Basel, Switzerland). Lysates were clarified by centrifugation at 13,000 rpm for 20 min at 4° C. Protein quantity was determined by the Bradford Assay Reagent (Bio-Rad). Typically, 50 μg of protein was resolved on either 6% or 12% SDS-polyacrylamide and transferred onto PVDF membranes (Millipore, Billerica, Mass.). Membranes were probed using antibodies specific to Ect2 and other proteins listed in the attached document. Protein bands were visualized by chemiluminescence using the ECL Western blotting system (Amersham, Arlington Heights, Ill.) according to manufacturer's protocol. Actin was used as loading control.
The use of ECT2 inhibitor sensitizes glioma cell stochemotherapy treatment such as with Temozolomide (FIG. 14). ECT2 regulation by RTK/mTOR pathway through EGFR inhibition (FIG. 18) with Erlotinib (10 uM) (FIG. 18A), Akt inhibition with API2 (10 uM), and mTOR inhibition with Rapamycin (50 nM) (FIG. 18B) Warburg effect and ECT2 regulation was examined in U118 glioma cells. The cells were treated with glycolysis or oxidative phosphorylation inhibitors [2-Deoxy-glucose (2DG) and oligomycin, respectively]. Filipin III was used to permeabilise mitochondria to provide exogenous source of pyruvate for the Tricarboxylic acid (TCA) cycle. Cellular energy level was measured by Western blot analysis of AMPK phosphorylation.

In the next assay the test system is p27^Kip1. The experiment in a line: Western blot of p27^Kip1 protein. The class given is cell-based, human. The conditions noted are these: MG132 100 nM added to cells over-expressing Ect2. As to the method: Cell Culture and Transfection. A172, U87, U118, U373 and T98G human glioma cells (ATCC, Manassas, Va.) were cultured in Dulbecco's modified Eagle's medium (DMEM) supplemented with 10% fetal bovine serum (Hyclone, South Logan, Utah). Cells were synchronised at quiescence through serum starvation. Full-length human Ect2 was cloned into the expression vector pXJ41 using EcoRI and BamHI digestion. The Ect2 truncation mutants ΔN-Ect2-DH/PH/C, ΔN-Ect2-DH/PH and ΔN-Ect2-DH were cloned in pCTV3-HA3. p27-PF, p27-ApaI, pGVB2 were gifts. For transient expression, cells were seeded at 40% confluence and transfected with 1.5 μg of DNA using Polyfect transfection reagent (Qiagen GmBH, Hilden, Germany). For knockdown experiments, Ect2 siRNAs were transfected into cells using SilentFect (Bio-Rad, Hercules, Calif.). RhoA inhibitor C3 exoenzyme (Upstate Biotech, Billerica, Mass.) was introduced into cells using Lipofectamine2000 (Invitrogen, Carlsbad, Calif.) at a concentration of 10 mg/ml. Cells were treated with the proteasome inhibitor MG132 (Calbiochem, San Diego, Calif.) at a concentration of 100 nM.
Western blot analysis. Whole cell lysates were prepared at the indicated time points following treatment. […] Protein quantity was determined by the Bradford Assay Reagent (Bio-Rad). […]

Peptide text beside a SMILES is read from it. * marks the point of attachment. Cbz = O=C(OCc1ccccc1)*

As for `O=CC[C@@H](O)[C@H](O)[C@H](O)CO` [2DG, 2-Deoxy-D-glucose], in the assay on U118 glioma cells, the ECT2 expression result is on record as “reduced” and the mTOR activity entry is “significantly lower”. Further, the “phosphorylated AMPK” value in the assay on U118 glioma cells (glycolysis inhibition) is listed as “higher level”.

As to `CC(C)C[C@@H](C=O)NC(=O)[C@H](CC(C)C)NC(=O)[C@H](CC(C)C)NC(=O)OCc1ccccc1` [MG132] (Cbz-Leu-Leu-Leu-aldehyde), the “Ect2-mediated suppression of p27^Kip1” value in the assay on p27^Kip1 is “completely abrogated”.

As to `CC[C@H]1/C=C/C=C/C[C@@H](C)[C@H](O)[C@@](C)(O)C(=O)[C@@H](C)[C@H](O)[C@@H](C)C(=O)[C@@H](C)[C@H](O)[C@@H](C)/C=C/C(=O)O[C@@H]2[C@H](C)[C@H](CC1)O[C@]1(CC[C@H](C)[C@H](C[C@@H](C)O)O1)[C@H]2C` [oligomycin], in the assay with U118 glioma cells, the ECT2 expression result is recorded as “did not affect” and the mTOR activity result is recorded as “did not affect”.
